Values quoted from earlier work in patent US12194002B2, “Compositions and methods to improve the therapeutic benefit of suboptimally administered chemical compounds including substituted hexitols such as dibromodulcitol” (priority 2011, dated 2025).

Key:
[1] = target: JAK2V617F mutant of the JAK2 tyrosine kinase (Homo sapiens, UniProt O60674, V617F)
Sequence of JAK2V617F mutant of the JAK2 tyrosine kinase (O60674 whole entry V617F): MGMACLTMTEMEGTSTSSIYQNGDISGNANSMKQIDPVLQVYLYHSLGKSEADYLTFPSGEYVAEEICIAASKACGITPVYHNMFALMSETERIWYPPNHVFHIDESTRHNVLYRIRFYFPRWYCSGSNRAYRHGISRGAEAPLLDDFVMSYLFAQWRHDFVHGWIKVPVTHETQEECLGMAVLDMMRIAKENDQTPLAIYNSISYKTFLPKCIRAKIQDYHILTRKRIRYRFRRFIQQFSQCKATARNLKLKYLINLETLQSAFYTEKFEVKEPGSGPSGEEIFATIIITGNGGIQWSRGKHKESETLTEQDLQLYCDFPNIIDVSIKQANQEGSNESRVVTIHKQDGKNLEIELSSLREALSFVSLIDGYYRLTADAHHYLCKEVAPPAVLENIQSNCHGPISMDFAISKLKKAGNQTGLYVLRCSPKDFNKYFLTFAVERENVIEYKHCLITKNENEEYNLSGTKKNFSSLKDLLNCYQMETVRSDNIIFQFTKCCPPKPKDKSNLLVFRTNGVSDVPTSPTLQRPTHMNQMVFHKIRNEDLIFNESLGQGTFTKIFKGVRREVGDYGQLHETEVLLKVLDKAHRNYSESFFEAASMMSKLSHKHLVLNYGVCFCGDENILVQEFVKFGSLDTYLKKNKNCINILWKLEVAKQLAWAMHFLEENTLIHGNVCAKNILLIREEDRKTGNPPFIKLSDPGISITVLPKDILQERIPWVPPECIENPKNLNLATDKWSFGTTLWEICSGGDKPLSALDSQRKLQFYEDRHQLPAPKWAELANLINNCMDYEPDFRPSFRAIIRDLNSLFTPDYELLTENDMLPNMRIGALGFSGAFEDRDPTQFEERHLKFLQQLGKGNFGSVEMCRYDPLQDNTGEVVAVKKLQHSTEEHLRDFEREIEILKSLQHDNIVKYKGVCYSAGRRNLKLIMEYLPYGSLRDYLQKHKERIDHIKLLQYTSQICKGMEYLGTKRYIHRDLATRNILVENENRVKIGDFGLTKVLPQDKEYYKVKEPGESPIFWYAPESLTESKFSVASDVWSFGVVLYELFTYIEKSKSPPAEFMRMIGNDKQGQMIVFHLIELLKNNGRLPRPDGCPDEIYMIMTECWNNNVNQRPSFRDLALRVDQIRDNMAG

Structure (SMILES)	Inhibition of JAK2V617F mutant [1]	Absorption by the oral route
C#Cc1cccc(Nc2ncnc3cc(OCCOC)c(OCCOC)cc23)c1 [Tarceva, N-(3-ethynylphenyl)-6,7-bis(2-methoxyethoxy)quinazolin-4-amine]	potent inhibitor	–
O[C@H]([C@H](O)[C@@H](O)CBr)[C@H](O)CBr [dibromodulcitol]	–	rapid and fairly complete
